Laboratory results from patent publication US20240166702A1, “COMPOSITIONS AND METHODS FOR TREATING BREAST CANCER” (Arizona Board of Regents on Behalf of The University of …, priority 2021, published 2024).

Legend:
BT20 cells = assay type: cell-based, human
Protocol: B. MDA-MD-468 cells were transduced with an IPTG inducible shEGFR targeted against the 3′ UTR of EGFR. These cells were incubated with IPTG for the indicated number of days and lysates were generated to confirm knock down of EGFR. C. In tandem with B., cells were plated and incubated +/−IPTG for 2 days prior to drug treatment. […] After 5 days of IPTG and 3 days of peptide treatment viability was measured using an MTT assay.
To investigate rt-EGFR, the role of the Sorting Nexins to regulate EGFR trafficking to the lysosome for degradation was investigated. To determine if SNX1 domains could be therapeutically mimicked, three SNX1-based peptides were synthesized, each of which was generated in tandem with a Cell Penetrating Peptide domain (PTD-4) to allow for intracellular penetration^19 (SNX1.1, 1.2 and 1.3, FIG. 2A). The ability of each peptide to reduce cell survival in the triple negative breast cancer cell line BT20 was evaluated.
EGFR activity is known to promote the activity of other RTKs, including those in the EGFR family (HER2, HER3 and HER4) and the c-Met receptor (Puri and Salgia 2008; Linklater et al. 2016). Therefore, the ability of SNX1.3 to inhibit 2D migration was next evaluated, both in response to EGF as well as other migration-inducing ligands. […] Cells were plated on plastic and allowed to migrate into an artificial wound over 12 hours. […] To determine if this inhibitory effect was restricted to EGF-induced migration, the ability of SNX1.3 to impact neuregulin (NRG1) was also tested and hepatic growth factor (HGF)-induced migration. NRG is the ligand for HER3 and HER4, and HGF the ligand for the c-Met receptor, both of which are receptor tyrosine kinases. In addition, soluble hyaluronic acid (HA)-induced migration, the ligand for CD44, was also tested [a non-kinase membrane receptor that induces migration (Louderbough, Lopez, and Schroeder 2010)]. […] Note that all receptors undergo endocytosis, with the RTKs primarily undergoing clathrin-dependent endocytosis, while CD44 endocytosis is clathrin-independent (Dutta and Donaldson 2015).

[1] = Toxicity evaluation in C57Bl/6J female mice; assay type: in vivo, mouse; settings: 5.0 or 10.0 μg/g body weight, 3×/week IV, 2 weeks; cSNX1.3 versus cPTD4; data not shown
Protocol: Mice are continually bred to activate the pregnancy-dependent WAP promoter, which drives expression of the EGFR ligand Transforming Growth Factor alpha (TGFα) strictly to the mouse mammary glands. This model stochastically forms unifocal mammary adenocarcinomas through a process that begins with mammary hyperplasia, followed by tumor formation over approximately 8 months. […] No difference in weight or behavior or grooming was observed. Therefore 10 μg/g body weight was used for subsequent studies.

WAP-TGFα tumors = assay: NanoString analysis of WAP-TGFα tumors (PanCancer IO 360 Panel); assay type: in vivo, mouse
Protocol: A. Tumors (n=6 each treatment) from WAP-TGF mice as described in FIG. 1 were embedded and analyzed by NanoString. […] C. Tumors were dissected, lysed, and analyzed for apoptosis by probing for cleaved PARP and PDL1 expression.
C. WAP-TGFα tumors treated with either SNX1.3 or cPTD4 were analyzed for NK cells using an anti-NKp46 antibody. Inset is 20×.
Due to the increased leukocyte infiltration identified by histology of cSNX1.3-treated WAP-TGFα mice, NanoString analysis was performed using a panel that identifies alterations in immune regulators through localized analysis of transcript expression (PanCancer IO 360 Panel). […] These include several immune/inflammatory genes (such as CD2, TLR, CD28, H2-M3, Ly6C1, cytokines, and chemokines) as well as genes that could impact the metastatic potential of the microenvironment (including collagen 11A1 and MM P12). NanoString bioinformatics analysis further identified that these changes could be due to an increase in Cytotoxic T lymphocytes (CTLs) in cSNX1.3-treated samples compared to PTD4 (FIG. 8B). […] Therefore, tumor lysates were prepared and evaluated for apoptosis and a loss of the negative immune checkpoint receptor PDL1 (FIG. 8C). […] These changes could indicate an alteration from an immune-suppressive to an immune-surveilling microenvironment.

pAkt and dpERK = assay: EGF-dependent Akt and ERK activation in MDA-MB-468 cells; assay type: cell-based, human; settings: MDA-MB-468, EGF stimulated
[2] = test system: BT20 triple negative breast cancer cells; assay: BT20 mammosphere assay; assay type: cell-based, human
Protocol: Cells were then fractionated and verified by HSP90 cytosolic protein, Bap31 membrane protein, or HDAC nuclear protein. B. MDA-MB-468 cells were serum starved overnight then stimulated with EGF on ice for 10 minutes. […] B. MDA-MB-468 cells were serum starved overnight then incubated on ice with 10 ng/mL EGF for 10 minutes. […] C. […] After the second week, the number of secondary mammospheres were counted.

[3] = test system: A549 lung cancer line with wildtype EGFR; assay: MTT cell viability assay in A549 cells; assay type: cell-based; settings: 3 days
CHO cells = assay: Effect on CHO cells that lack EGFR expression; assay type: cell-based
Text: No effect on CHO cells that lack EGFR expression was observed.

IL1RL1 = assay: RT-PCR analysis of IL1RL1 in MDA-MB-468 cells; assay type: cell-based, human; settings: similarly treated MDA-MB-468 cells
Text: A-C. […] A. A gene ontology enrichment bubble plot was produced, and the top 30 enriched GO terms are shown. Color indicates −1*log 10(FDR) for significance of overlap (the higher the more significant). X axis=log odds ratio for genes annotated to that GO term. […] C. RT-PCR analysis of IL1RL1.
A significant impact on the immune response, especially IL-1 dependent pathways was identified (FIG. 12A). IL-1-specific genes were searched and an upregulation in several IL1R genes, including IL1R2, IL1RL1, IL1RL2, IL1RAP and IL1RN (FIG. 12B) were found. […] It is hypothesized that the transient and targeted activation of the IL1/TLR pathway in the tumors may allow for the immune system to become active where previously these tumors were immune suppressive. Triple negative breast cancers with active EGFR pathways are clinically immune suppressive, and it is hypothesized that blocking nEGFR may allow for the utilization of immune targeting to treat these cancers.

[4] = test system: H1975 cell line with an EGFR driver mutation in the kinase domain (T790M); assay: MTT cell viability assay in H1975 cells; assay type: cell-based; settings: 3 days

## CC[C@H](C)[C@H](NC(=O)[C@@H](NC(=O)[C@H](Cc1c[nH]cn1)NC(=O)[C@H](CC(N)=O)NC(=O)[C@H](CCCCN)NC(=O)[C@H](C)NC(=O)[C@H](CCCNC(=N)N)NC(=O)[C@H](C)NC(=O)[C@H](CCC(N)=O)NC(=O)[C@H](CCCNC(=N)N)NC(=O)[C@H](C)NC(=O)[C@H](C)NC(=O)[C@H](C)NC(=O)[C@H](CCCNC(=N)N)NC(=O)[C@H](C)NC(=O)[C@H](Cc1ccc(O)cc1)NC(C)=O)C(C)C)C(=O)N[C@@H](CCCCN)C(=O)N[C@@H](Cc1ccc(O)cc1)C(=O)N[C@@H](CC(C)C)C(=O)N[C@@H](CCC(=O)O)C(=O)N[C@H](C(=O)N[C@@H](CC(C)C)C(=O)N[C@@H](CC(C)C)C(=O)N[C@@H](Cc1ccc(O)cc1)C(=O)N[C@@H](CO)C(=O)N[C@@H](CCC(N)=O)C(=O)N[C@@H](CCC(N)=O)C(=O)N[C@@H](CCC(N)=O)C(=O)N[C@@H](CC(C)C)C(=O)N[C@@H](C)C(=O)N[C@@H](CCCCN)C(=O)N[C@@H](Cc1ccc(O)cc1)C(=O)N[C@@H](Cc1c[nH]c2ccccc12)C(=O)N[C@@H](CCC(=O)O)C(=O)N[C@@H](C)C(=O)N[C@@H](Cc1ccccc1)C(=O)N[C@@H](CC(C)C)C(N)=O)[C@@H](C)O [cSNX1.3]
BT20 cells
  IC50: 25 µM
BT20 cells; BT20, 3 days, MTT assay
  inhibition of cell survival, compared with Sapitinib: more effective than Sapitinib
[1]
  difference in weight or behavior or grooming: No difference
WAP-TGFα tumors; NanoString
  expression of TLR1, TLR7, TLR8, TLR9, IRF5 and IRF8: increased expression
WAP-TGFα tumors; NanoString bioinformatics, compared to PTD4, six tumors each
  Cytotoxic T lymphocytes (CTLs) in tumors: increase
WAP-TGFα tumors; NanoString, compared to PTD4 control
  NK cells in tumor samples: increase
pAkt and dpERK; 15′
  immediate Akt or ERK activation: no impact
pAkt and dpERK; after an hour (60′)
  pAkt and dpERK activation, late: suppressed
[2]; BT20, cSNX1.3 in first week, cPTD4 or vehicle in second week
  secondary sphere formation after treatment in the first week only: significant reduction of sphere formation
[2]; BT20, first week of treatment
  mammosphere formation: no mammospheres were formed
[2]; BT20, re-plated, treatment on the second week
  secondary mammosphere formation, treated in the second week: no mammosphere formation
[3]
  inhibition of cell survival, compared with Sapitinib: more effective than Sapitinib
CHO cells
  effect on CHO cells: No effect
IL1RL1
  IL1RL1 expression: upregulated
[4]
  effect on cell viability: no effect
